Experiment [1] deals with Daudi, Ramos, Raji and Karpas 299 cells. The experiment in a line: Relative potency of unconjugated drugs versus doxorubicin across cell lines. In kind it is cell-based, human. How it is done: (§1) Cytotoxicity assays. Cytotoxicity was measured by Alamar Blue (Biosource International) dye reduction assay according to manufacturers directions (Nakayama et al. Journal Of Immunological Methods 1997; 204:205-208). Briefly, a 40% solution (w/v) of Alamar Blue was freshly prepared in complete media just prior to adding to cultures. The Alamar Blue solution was added at cell densities of 10^5 cells/ml for the Ramos, Raji, and Karpas cell lines, and at a cell density of 4×10^5 cells/ml for the Daudi cell line. After 92 h following drug exposure. Alamar Blue solution was added to cells to constitute 10% culture volume. The cells were incubated for 4 h and dye reduction measured on a Fusion HT fluorescent plate reader (Packard Instruments, Meriden, Conn.).
(§2) Cell sensitivity to unconjugated drugs. The cells were initially evaluated for relative sensitivity to doxorubicin and MMAE. Cells were exposed to drugs for 2 h, washed, replated in fresh media and incubated for an additional 92 h. Four h. prior to harvest, cells were incubated with Alamar Blue, a reducible dye that provides readout of cell viability (Nakayarna et al., 1997).

Another experiment relates to Raji cells. Put plainly: Alamar Blue cytotoxicity assay, Raji cells. In kind it is cell-based, human. The protocol: as §1, §2
(§3) Sensitivity of cells to ADCs. […] As described above, 4 h prior to harvest, cells were incubated with Alamar Blue and cell viability assessed.
Background: The colour change of resazurin is a common sign of viable cells or microbes.

Experiment [2] has as its system Ramos cells. The experiment in a line: Confocal microscopy for mAb/ADC trafficking. Particulars: 5 ug/ml, 37 C, 1, 4 and 24 h.
Text: Microscopy for mAb/ ADC trafficking. […] At the designated times cells were harvested by centrifugation, fixed and permeabilized by paraformaldehyde/saponin (Cytofix/Cytoperm™ Buffer, BD PharMingen, San Diego, Calif.). After washing with the Perm/Wash™ buffer (BD PharMingen) and blocking with goat IgG, cells were stained with a goat anti-human IgG Fc_specific FITC conjugate (Jackson ImmunoResearch Laboratories, Inc., West Grove, Pa.). The localization of fluorescence signals was then visualized using a Deltavision confocal fluorescence microscope equipped with digital analysis software.
Internalization of the mAb-drug conjugate.
The subject of another experiment is Karpas 299 cells. Put plainly: Alamar Blue cytotoxicity assay, CD20-negative Karpas 299 cells. Type of experiment: cell-based, human. The protocol:
as §1, §2, §3

The next experiment has as its system Ramos NHL cells. The experiment in a line: Subcutaneous Ramos NHL xenograft model. Type of experiment: in vivo, SCID mice. The following applies: intraperitoneal, every 4 days for 3 injections, 3 mg/kg.
For experiment [3], the system named is Ramos cells. Put plainly: Alamar Blue cytotoxicity assay, Ramos cells. In kind it is cell-based, human. The protocol: as §1, §2, §3
The next experiment relates to Daudi cells. The experiment in a line: Alamar Blue cytotoxicity assay, Daudi cells. In kind it is cell-based, human. How it is done: as §1, §2, §3
The next experiment concerns CD20-positive cells. The experiment in a line: Cytotoxicity of ADCs, summary statement. Type of experiment: cell-based, human. The following applies: following brief exposure. How it is done:
as §1, §3

Experiment [4] has as its system Ramos cells. The experiment in a line: Induction of apoptosis, Annexin V-FITC / propidium iodide staining. Particulars: 5 μg/ml, after 24 hr of incubation.
Experimental: Selective induction of Apoptosis. […] At the designated times cells were removed from cultures and stained with Annexin V-FITC and propidium iodide (PI) as described in Materials and Methods. The range of apoptotic cells (Annexin V^+/PI^−) and of dead cells (Annexin V^+/PI^+) was determined by flow cytometric analysis of each population.
Induction of Apoptosis. […] At designated time points cells were removed from cultures and the degrees of apoptosis and cell death were determined by Annexin V binding to the cell surface and loss of propidium iodide (PI) inclusion respectively (FIG. 5).
Where [5] appears, read: ADC, 2 h binding, washed, additional 92 h, Raji.
Setting [6] is: ADC, 2 h binding, washed, additional 92 h, Karpas.
Setting [7] is: ADC, 2 h binding, washed, additional 92 h, Daudi.

The text below walks through data of patent US20050180972A1, “Anti-CD20 antibody-drug conjugates for the treatment of cancer and immune disorders” (priority 2002, published 2005).

Where two headings read alike, the source gives them in different places. Square brackets hold non-standard residues; d marks the D form. Peptide text beside a SMILES is read from it. * marks the point of attachment. Dolaproine = CO[C@@H]([C@@H]1CCCN1)[C@@H](C)C(=O)O; Dil = CC[C@H](C)[C@H](NC)[C@@H](CC(=O)O)OC; X1 = C[C@@H](N*)[C@@H](O)c1ccccc1; NMeV = CN[C@H](C(=O)O)C(C)C

Experimental for Ramos NHL cells: For the localized non Hodgkin's lymphoma model, 2×10^6 Ramos NHL cells were implanted into the right flank of SCID mice. […] Treatment consisted of intraperitoneal injections of mAb or ADC every 4 days for 3 injections. Tumor size was determined using the formula (L×W^2)/2.
SCID mice were implanted with 5×10^6 Ramos cells into the flank and the tumor size in each group of 5 animals was allowed to progress to an average size of 100 mm^3 before therapy with mAb or ADCs was initiated. Treatment consisted of intraperitoneal injections of mAb or ADC every 4 days for 3 injections using 1 and 3 mg/kg/injection.

With `CC[C@H](C)[C@@H]([C@@H](CC(=O)N1CCC[C@H]1[C@H](OC)[C@@H](C)C(=O)N[C@H](C)[C@@H](O)c1ccccc1)OC)N(C)C(=O)[C@@H](NC(=O)[C@H](C(C)C)N(C)C)C(C)C` [Auristatin E], in experiment [1], the “times more potent than doxorubicin” value was over 50 times.

One may read the IC50 as the concentration at which inhibition is half-maximal. Turning to “Rituximab-valine-citrulline-monomethyl Auristatin E [Rituxan-vcMMAE]”, the IC50 with Raji cells (ADC on Raji cells (FIG. 4A)) was 1.4 µg/mL; in the experiment on Raji cells (setting [5]) it was 1.5 µg/mL; in the experiment on Karpas 299 cells (setting [6]) it was over 50 µg/mL; with Ramos cells [3] (ADC on Ramos cells (FIG. 4B)), 0.045 µg/mL; in the experiment with Daudi cells (setting [7]), 2 µg/mL; in the experiment with CD20-positive cells it was 0.05 µg/mL. The “cellular localization (equatorial section)” value in the experiment with Ramos cells [2] is listed as “localized to the cell interior within 4 h”. Also, the “delay in tumor growth” value in the experiment with Ramos NHL cells was “significant delay in tumor growth”. The “percentage of apoptotic cells” value in the experiment on Ramos cells [4] is 19%. Further, the “percentage of dead cells” value with Ramos cells [4] was 60%.

`CC[C@H](C)[C@@H]([C@@H](CC(=O)N1CCC[C@H]1[C@H](OC)[C@@H](C)C(=O)N[C@H](C)[C@@H](O)c1ccccc1)OC)N(C)C(=O)[C@@H](NC(=O)[C@@H](NC)C(C)C)C(C)C` [MMAE, monomethyl Auristatin E] (H-[NMeV]V[Dil][Dolaproine]-X1): the IC50 in the experiment on Raji cells (Homo sapiens, Raji) was 3.5 nM; in the experiment with Karpas 299 cells (Homo sapiens, KARPAS-299), 3 nM; with Ramos cells [3] (Homo sapiens, Ramos), 1 nM; with Daudi cells (Homo sapiens, Daudi) it was 0.65 nM. Also, the “Activity Ratio MMAE/Doxorubicin” value in the experiment with Raji cells (Raji (CD20+)) is listed as 57.1; with Karpas 299 cells (Karpas (CD20-)), 216.7; in the experiment on Ramos cells [3] (Ramos (CD20+)), 225.0; in the experiment on Daudi cells (Daudi (CD20+)), 215.4.

Turning to `COc1cccc2c1C(=O)c1c(O)c3c(c(O)c1C2=O)C[C@@](O)(C(=O)CO)C[C@@H]3O[C@H]1C[C@H](N)[C@H](O)[C@H](C)O1` [Doxorubicin, doxorubicin, reference compound], the half-inhibitory concentration (IC50) is 200 nM with Raji cells (Homo sapiens, unconjugated drug, 2 h exposure, washed, additional 92 h, Raji (CD20+), read-out: IC50); 650 nM in the experiment with Karpas 299 cells (Homo sapiens, KARPAS-299, unconjugated drug, 2 h exposure, washed, additional 92 h, Karpas (CD20-), read-out: IC50); 225 nM in the experiment with Ramos cells [3] (Homo sapiens, unconjugated drug, 2 h exposure, washed, additional 92 h, Ramos (CD20+), read-out: IC50); 140 nM in the experiment with Daudi cells (Homo sapiens, unconjugated drug, 2 h exposure, washed, additional 92 h, Daudi (CD20+), read-out: IC50).

Take Rituxan-vcDox [reference compound]: the concentration for half-maximal inhibition (IC50) in the experiment on Raji cells (setting [5]) is over 50 µg/mL; in the experiment on Karpas 299 cells (setting [6]) it was over 50 µg/mL; in the experiment with Ramos cells [3] (ADC, 2 h binding, washed, additional 92 h, Ramos), over 50 µg/mL; with Daudi cells (setting [7]) it was over 50 µg/mL. In the experiment on Raji cells (Raji cells, up to 50 ug/ml), the “toxicity at the highest levels tested” value was “did not affect significant toxicity”. Moreover, in the experiment on Ramos cells [2], the “cellular localization (equatorial section)” value is on record as “remained primarily on the surface”.
